Experimental data published in patent publication US20250041300A1, “PHARMACEUTICAL COMBINATION COMPRISING ABEMACICLIB AND A PI3K AND/OR A MTOR INHIBITOR FOR THE TREATMENT OF MANTLE CELL LYMPHOMA” (Board of Regents, The University of Texas System, priority 2021, published 2025).

How the values were obtained:
[1] = molecular target: mTOR (Homo sapiens, UniProt P42345); settings: cited from earlier work
[2] = molecular target: PI3Kα (Homo sapiens, UniProt P42336); settings: cited from earlier work
[3] = molecular target: PI3Kγ (Homo sapiens, UniProt P48736); settings: cited from earlier work
[4] = molecular target: PI3Kδ (Homo sapiens, UniProt O00329); settings: cited from earlier work
[5] = system: MCL cell lines (Mino, Rec-1, Maver-1, Z138, JeKo-1); experiment: CellTiter-Glo Luminescent Cell viability Assay, abemaciclib single agent; format: cell-based; settings: 72h; range over venetoclax sensitive (Mino, Rec-1, Maver-1, Z138) and primary resistant (JeKo-1) MCL cells
Procedure: (§1) IC50 values were calculated using GraphPad Prism 8 for each cell line. Student's t-test was performed to compare the difference between vehicle and treated groups. Two-way analysis of variance (ANOVA) was conducted to analyze the tumor growth in vivo experiments. P values less than 0.05 were considered statistically significant.

[6] = system: Mino-ven-R cells; experiment: as above; format: cell-based; settings: 72h, acquired venetoclax resistance
Procedure: as §1

[7] = system: Rec-ven-R cells; experiment: as above; format: cell-based; settings: 72h, acquired venetoclax resistance
Procedure: as §1

[8] = molecular target: PI3Kβ (Homo sapiens, UniProt P42338); settings: cited from earlier work
[9] = molecular target: mTORC1/2 (Homo sapiens, UniProt P42345); settings: in words; cited from earlier work
[10] = system: class I PI3Ks; settings: cited from earlier work

Chain of PI3Kγ (P48736 whole entry): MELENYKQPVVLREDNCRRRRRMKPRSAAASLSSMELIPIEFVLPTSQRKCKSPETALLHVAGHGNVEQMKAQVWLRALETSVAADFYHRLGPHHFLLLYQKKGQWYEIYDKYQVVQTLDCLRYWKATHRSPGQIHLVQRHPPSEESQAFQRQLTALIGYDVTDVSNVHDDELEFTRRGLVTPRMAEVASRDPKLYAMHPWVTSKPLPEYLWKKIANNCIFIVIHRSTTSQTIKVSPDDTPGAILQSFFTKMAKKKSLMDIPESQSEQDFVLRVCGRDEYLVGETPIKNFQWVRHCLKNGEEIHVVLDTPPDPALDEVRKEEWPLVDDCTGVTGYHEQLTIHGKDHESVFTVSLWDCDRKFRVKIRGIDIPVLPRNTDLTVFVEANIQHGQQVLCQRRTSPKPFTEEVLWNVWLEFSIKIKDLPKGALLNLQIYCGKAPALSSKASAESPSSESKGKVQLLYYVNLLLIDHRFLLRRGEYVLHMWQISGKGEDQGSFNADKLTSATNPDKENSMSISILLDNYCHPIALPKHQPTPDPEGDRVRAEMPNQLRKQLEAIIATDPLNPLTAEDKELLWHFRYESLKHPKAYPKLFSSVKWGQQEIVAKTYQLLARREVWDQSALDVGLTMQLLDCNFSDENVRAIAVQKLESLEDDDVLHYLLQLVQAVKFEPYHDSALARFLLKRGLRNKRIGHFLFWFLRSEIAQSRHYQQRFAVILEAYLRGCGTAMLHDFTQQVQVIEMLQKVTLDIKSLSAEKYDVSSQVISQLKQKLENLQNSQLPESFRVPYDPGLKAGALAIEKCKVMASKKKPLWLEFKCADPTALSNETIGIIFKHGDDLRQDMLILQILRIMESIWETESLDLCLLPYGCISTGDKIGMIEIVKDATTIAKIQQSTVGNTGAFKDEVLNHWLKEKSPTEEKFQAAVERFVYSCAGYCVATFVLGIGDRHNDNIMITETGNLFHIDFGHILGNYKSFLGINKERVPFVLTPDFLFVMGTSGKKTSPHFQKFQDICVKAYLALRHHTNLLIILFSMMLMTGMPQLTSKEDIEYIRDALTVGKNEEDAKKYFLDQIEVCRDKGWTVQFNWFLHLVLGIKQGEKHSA
Chain of PI3Kβ (P42338 whole entry): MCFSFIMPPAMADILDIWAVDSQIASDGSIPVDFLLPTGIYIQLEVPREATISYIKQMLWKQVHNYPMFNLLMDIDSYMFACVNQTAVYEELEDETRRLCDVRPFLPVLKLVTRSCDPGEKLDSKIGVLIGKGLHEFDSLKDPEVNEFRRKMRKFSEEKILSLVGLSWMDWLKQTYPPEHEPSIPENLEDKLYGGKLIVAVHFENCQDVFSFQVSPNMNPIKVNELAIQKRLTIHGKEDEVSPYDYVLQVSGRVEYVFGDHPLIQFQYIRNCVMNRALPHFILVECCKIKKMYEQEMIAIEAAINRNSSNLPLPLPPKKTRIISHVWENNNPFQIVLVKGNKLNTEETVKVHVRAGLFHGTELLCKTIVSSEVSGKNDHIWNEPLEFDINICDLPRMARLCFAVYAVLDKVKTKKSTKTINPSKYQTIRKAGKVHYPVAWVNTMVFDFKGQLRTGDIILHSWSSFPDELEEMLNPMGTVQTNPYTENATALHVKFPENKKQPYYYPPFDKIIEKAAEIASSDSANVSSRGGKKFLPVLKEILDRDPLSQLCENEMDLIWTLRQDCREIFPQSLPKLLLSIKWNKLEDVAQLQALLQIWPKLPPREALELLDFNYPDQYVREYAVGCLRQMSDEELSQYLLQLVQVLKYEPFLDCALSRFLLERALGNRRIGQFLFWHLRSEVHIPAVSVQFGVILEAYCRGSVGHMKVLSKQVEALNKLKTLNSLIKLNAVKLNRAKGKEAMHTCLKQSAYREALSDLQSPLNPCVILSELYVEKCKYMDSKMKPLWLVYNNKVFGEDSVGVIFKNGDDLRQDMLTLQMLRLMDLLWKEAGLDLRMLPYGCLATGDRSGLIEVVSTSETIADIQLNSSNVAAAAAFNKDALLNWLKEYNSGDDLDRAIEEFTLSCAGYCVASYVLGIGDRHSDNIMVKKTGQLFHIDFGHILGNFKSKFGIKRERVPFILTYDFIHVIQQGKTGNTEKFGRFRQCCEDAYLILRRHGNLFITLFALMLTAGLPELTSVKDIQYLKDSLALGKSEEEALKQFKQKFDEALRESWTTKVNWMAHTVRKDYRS
Chain of PI3Kβ (P27986 whole entry partner): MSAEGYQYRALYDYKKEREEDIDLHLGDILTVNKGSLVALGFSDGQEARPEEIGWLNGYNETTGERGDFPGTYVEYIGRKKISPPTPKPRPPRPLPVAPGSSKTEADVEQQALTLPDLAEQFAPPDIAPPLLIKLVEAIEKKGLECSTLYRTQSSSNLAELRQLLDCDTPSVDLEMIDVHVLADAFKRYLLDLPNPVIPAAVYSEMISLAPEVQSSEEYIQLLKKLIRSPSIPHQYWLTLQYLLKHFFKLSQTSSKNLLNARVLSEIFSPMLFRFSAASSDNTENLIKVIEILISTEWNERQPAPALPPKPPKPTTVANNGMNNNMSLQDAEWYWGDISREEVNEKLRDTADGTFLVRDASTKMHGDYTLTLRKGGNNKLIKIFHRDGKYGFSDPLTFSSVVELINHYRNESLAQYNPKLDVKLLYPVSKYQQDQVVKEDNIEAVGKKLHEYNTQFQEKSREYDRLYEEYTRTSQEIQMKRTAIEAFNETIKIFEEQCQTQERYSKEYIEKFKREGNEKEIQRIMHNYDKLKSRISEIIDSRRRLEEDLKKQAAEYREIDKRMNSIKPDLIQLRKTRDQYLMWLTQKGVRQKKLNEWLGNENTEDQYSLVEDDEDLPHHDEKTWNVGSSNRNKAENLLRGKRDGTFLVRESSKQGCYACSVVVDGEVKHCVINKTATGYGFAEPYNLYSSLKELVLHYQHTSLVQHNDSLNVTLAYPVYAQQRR
Chain of PI3Kα (P42336 whole entry): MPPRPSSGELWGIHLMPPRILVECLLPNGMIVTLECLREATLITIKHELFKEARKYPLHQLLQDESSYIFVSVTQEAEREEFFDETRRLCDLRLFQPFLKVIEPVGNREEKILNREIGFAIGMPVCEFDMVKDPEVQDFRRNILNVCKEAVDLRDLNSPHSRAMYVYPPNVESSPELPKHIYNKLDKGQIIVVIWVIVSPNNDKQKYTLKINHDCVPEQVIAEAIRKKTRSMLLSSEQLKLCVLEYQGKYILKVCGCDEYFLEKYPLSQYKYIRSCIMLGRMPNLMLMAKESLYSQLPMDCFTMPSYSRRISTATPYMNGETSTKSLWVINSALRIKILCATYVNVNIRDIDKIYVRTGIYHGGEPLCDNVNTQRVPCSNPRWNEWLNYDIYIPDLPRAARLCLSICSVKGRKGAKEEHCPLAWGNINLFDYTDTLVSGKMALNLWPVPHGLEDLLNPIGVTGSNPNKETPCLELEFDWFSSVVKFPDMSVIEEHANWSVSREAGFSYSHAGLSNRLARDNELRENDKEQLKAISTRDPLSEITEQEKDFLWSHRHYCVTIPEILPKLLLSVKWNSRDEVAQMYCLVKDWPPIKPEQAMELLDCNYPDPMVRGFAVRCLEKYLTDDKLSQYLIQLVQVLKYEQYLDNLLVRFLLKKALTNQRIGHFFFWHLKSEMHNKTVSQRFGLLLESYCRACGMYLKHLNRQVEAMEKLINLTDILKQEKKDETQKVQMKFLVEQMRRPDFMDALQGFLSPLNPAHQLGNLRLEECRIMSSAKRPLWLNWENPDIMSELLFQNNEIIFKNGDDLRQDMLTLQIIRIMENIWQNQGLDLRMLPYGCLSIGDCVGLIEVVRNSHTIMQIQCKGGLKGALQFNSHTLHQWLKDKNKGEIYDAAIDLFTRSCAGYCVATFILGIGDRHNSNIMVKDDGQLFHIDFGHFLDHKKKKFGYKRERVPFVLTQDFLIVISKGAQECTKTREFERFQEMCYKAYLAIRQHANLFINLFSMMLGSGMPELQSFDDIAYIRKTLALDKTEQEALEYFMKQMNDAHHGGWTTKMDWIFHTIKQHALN
Chain of PI3Kα (P27986 whole entry partner): as the sequence (P27986 whole entry partner) above
Chain of PI3Kδ (O00329 whole entry): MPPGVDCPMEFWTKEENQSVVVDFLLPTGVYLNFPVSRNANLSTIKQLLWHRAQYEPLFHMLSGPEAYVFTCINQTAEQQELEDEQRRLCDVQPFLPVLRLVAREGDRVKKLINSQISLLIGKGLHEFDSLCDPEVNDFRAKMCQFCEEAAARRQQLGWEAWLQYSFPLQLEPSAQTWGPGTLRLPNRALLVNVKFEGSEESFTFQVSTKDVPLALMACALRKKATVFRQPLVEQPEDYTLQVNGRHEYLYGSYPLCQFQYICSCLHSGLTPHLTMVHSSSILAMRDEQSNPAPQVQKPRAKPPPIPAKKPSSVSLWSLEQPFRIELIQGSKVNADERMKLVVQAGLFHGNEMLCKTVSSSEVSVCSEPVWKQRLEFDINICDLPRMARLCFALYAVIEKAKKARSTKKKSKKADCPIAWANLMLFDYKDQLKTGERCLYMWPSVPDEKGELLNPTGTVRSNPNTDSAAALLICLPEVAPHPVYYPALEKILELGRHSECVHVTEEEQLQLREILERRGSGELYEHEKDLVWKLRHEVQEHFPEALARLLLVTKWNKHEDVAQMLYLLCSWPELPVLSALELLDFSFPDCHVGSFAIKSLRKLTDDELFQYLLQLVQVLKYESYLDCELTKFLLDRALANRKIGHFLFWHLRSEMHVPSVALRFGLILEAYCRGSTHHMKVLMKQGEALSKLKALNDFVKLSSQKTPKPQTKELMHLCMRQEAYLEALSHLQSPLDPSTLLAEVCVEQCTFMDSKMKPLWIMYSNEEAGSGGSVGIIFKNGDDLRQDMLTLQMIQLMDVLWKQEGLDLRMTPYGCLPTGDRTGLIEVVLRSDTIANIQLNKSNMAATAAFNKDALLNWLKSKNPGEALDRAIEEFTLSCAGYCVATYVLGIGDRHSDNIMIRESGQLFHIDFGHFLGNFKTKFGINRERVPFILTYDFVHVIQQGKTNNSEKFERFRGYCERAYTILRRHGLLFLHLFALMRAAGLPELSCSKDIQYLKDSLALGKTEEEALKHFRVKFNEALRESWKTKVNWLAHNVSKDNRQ
Chain of PI3Kδ (P27986 whole entry partner): as the sequence (P27986 whole entry partner) above

CO[C@H]1C[C@@H]2CC[C@@H](C)[C@@](O)(O2)C(=O)C(=O)N2CCCC[C@H]2C(=O)O[C@H]([C@H](C)C[C@@H]2CC[C@@H](OC(=O)C(C)(CO)CO)[C@H](OC)C2)CC(=O)[C@H](C)/C=C(\C)[C@@H](O)[C@@H](OC)C(=O)[C@H](C)C[C@H](C)/C=C/C=C/C=C/1C [Temsirolimus, [(1R,2R,4S)-4-[(2R)-2-[(1R,9S, 12S, 15R, 16E,18R, 19R,21R,23S,24E,26E,28E,30S,32S,35R)-1,18-dihydroxy-19,30-dimethoxy-15,17,21,23,29,35-hexamethyl-2,3,10, 14,20-pentaoxo-11,36-dioxa-4-azatricyclo[30.3.1.04,9]hexatriaconta-16,24,26,28-tetraen-12-yl]propyl]-2-methoxycyclohexyl]3-hydroxy-2-(hydroxymethyl)-2-methylpropanoate]
IC50 against mTOR (order of magnitude in words) [1]: micromolar

C=CCN(/C=C1/C(=O)O[C@H](COC)[C@@]2(C)C1=C(O)C(=O)C1=C2[C@H](OC(C)=O)C[C@]2(C)C(=O)CC[C@@H]12)CC=C [Sonolisib, [(3αR,6E,9S,9αR,10R,11αS)-6-[bis(prop-2-enyl)aminomethylidene]-5-hydroxy-9-(methoxymethyl)-9α,11α-dimethyl-1,4,7-trioxo-2,3,3a,9,10,11-hexahydroindeno[4,5-h]isochromen-10-yl]acetate]
IC50 against PI3Kα (order of magnitude in words) [2]: nanomolar | IC50 against PI3Kγ (order of magnitude in words) [3]: nanomolar | IC50 against PI3Kδ (order of magnitude in words) [4]: nanomolar

CC[C@H](Nc1ncnc2[nH]cnc12)c1oc2ccccc2c(=O)c1-c1cccc(F)c1 [Tenalisib, 3-(3-fluorophenyl)-2-[(1S)-1-(7H-purin-6-ylamino)propyl]chromen-4-one]
IC50 against PI3Kγ (order of magnitude in words) [3]: nanomolar | IC50 against PI3Kδ (order of magnitude in words) [4]: nanomolar

CCN1CCN(Cc2ccc(Nc3ncc(F)c(-c4cc(F)c5nc(C)n(C(C)C)c5c4)n3)nc2)CC1 [abemaciclib]
IC50 [5]: 0.07 to 0.952 µM | IC50 [6]: 6 µM | IC50 [7]: 4.4 µM

Nc1nc2cc(-c3ccc4ncc(C(=O)N5CCOCC5)n4c3)ccc2o1 [Serabelisib, [6-(2-amino-1,3-benzoxazol-5-yl)imidazo[1,2-a]pyridin-3-yl]-morpholin-4-ylmethanone]
IC50 against PI3Kα (order of magnitude in words) [2]: nanomolar

CCn1c(=O)c(-c2ccn[nH]2)cc2c(C)nc(N)nc21 [Voxtalisib, 2-amino-8-ethyl-4-methyl-6-(1H-pyrazol-5-yl)pyrido[2,3-d]pyrimidin-7-one]
IC50 against PI3Kα (order of magnitude in words) [2]: nanomolar | IC50 against PI3Kβ (order of magnitude in words) [8]: nanomolar | IC50 against PI3Kγ (order of magnitude in words) [3]: nanomolar | IC50 against PI3Kδ (order of magnitude in words) [4]: nanomolar | IC50 against mTOR (order of magnitude in words) [1]: nanomolar

COc1ccc(Cl)c(Nc2nc3ccccc3nc2NS(=O)(=O)c2cccc(NC(=O)C(C)(C)N)c2)c1 [Pilaralisib, 2-amino-N-[3-[[3-(2-chloro-5-methoxyanilino)quinoxalin-2-yl]sulfamoyl]phenyl]-2-methylpropanamide]
IC50 against PI3Kα (order of magnitude in words) [2]: nanomolar | IC50 against PI3Kβ (order of magnitude in words) [8]: nanomolar | IC50 against PI3Kγ (order of magnitude in words) [3]: nanomolar | IC50 against PI3Kδ (order of magnitude in words) [4]: nanomolar

COc1cccc2cc(-c3nc([C@H]4CC[C@H](C(=O)O)CC4)n4ncnc(N)c34)[nH]c12 [OSI-027, 4-[4-amino-5-(7-methoxy-1H-indol-2-yl)imidazo[5,1-f][1,2,4]triazin-7-yl]cyclohexane-1-carboxylic acid]
IC50 against mTOR (order of magnitude in words) [1]: nanomolar

CN1CCC(c2ccccc2CC(C)(C)Nc2nc(N3CCOCC3)nc(-n3c(C(F)F)nc4ccccc43)n2)CC1 [Zandelisib, 4-[2-(difluoromethyl)benzimidazol-1-yl]-N-[2-methyl-1-[2-(1-methylpiperidin-4-yl)phenyl]propan-2-yl]-6-morpholin-4-yl-1,3,5-triazin-2-amine]
IC50 against PI3Kδ (order of magnitude in words) [4]: nanomolar

COc1ccc(-c2ccc3ncc4c(c3c2)n(-c2ccc(N3CCNCC3)c(C(F)(F)F)c2)c(=O)n4C)cn1 [BGT-226, 8-(6-methoxypyridin-3-yl)-3-methyl-1-[4-piperazin-1-yl-3-(trifluoromethyl)phenyl]imidazo[4,5-c]quinolin-2-one]
IC50 against PI3Kα (order of magnitude in words) [2]: nanomolar | IC50 against PI3Kβ (order of magnitude in words) [8]: nanomolar | IC50 against PI3Kγ (order of magnitude in words) [3]: nanomolar | IC50 against PI3Kδ (order of magnitude in words) [4]: nanomolar | IC50 against mTOR (order of magnitude in words) [1]: nanomolar

Cc1nc(-c2cn3c(n2)-c2ccc(-c4cnn(C(C)(C)C(N)=O)c4)cc2OCC3)n(C(C)C)n1 [Taselisib, 2-methyl-2-[4-[2-(5-methyl-2-propan-2-yl-1,2,4-triazol-3-yl)-5,6-dihydroimidazo[1,2-d][1,4]benzoxazepin-9-yl]pyrazol-1-yl]propanamide]
IC50 against PI3Kβ (order of magnitude in words) [8]: nanomolar | IC50 against PI3Kγ (order of magnitude in words) [3]: nanomolar

COc1ncc(-c2ccc3nccc(-c4ccnnc4)c3c2)cc1NS(=O)(=O)c1ccc(F)cc1F [Omipalisib, 2,4-difluoro-N-[2-methoxy-5-(4-pyridazin-4-ylquinolin-6-yl)pyridin-3-yl]benzenesulfonamide]
IC50 against PI3Kγ (order of magnitude in words) [3]: nanomolar

Cc1c(CN2CCN(C(=O)[C@H](C)O)CC2)sc2c(N3CCOCC3)nc(-c3cnc(N)nc3)nc12 [Apitolisib, (2S)-1-[4-[[2-(2-aminopyrimidin-5-yl)-7-methyl-4-morpholin-4-ylthieno[3,2-d]pyrimidin-6-yl]methyl]piperazin-1-yl]-2-hydroxypropan-1-one]
IC50 against mTOR (order of magnitude in words) [1]: nanomolar

C[C@@H](Nc1cc(F)cc(F)c1)c1cc(C(=O)N(C)C)cc2c(=O)cc(N3CCOCC3)oc12 [AZD8186, 8-[(1R)-1-(3,5-difluoroanilino)ethyl]-N,N-dimethyl-2-morpholin-4-yl-4-oxochromene-6-carboxamide]
IC50 against PI3Kδ (order of magnitude in words) [4]: nanomolar

CO[C@@H](C)Cn1c(=O)n(C)c2cnc3ccc(-c4cncc(C(C)(C)O)c4)cc3c21 [Samotolisib, 8-[5-(2-hydroxypropan-2-yl)pyridin-3-yl]-1-[(2S)-2-methoxypropyl]-3-methylimidazo[4,5-c]quinolin-2-one]
concentrations at which mTORC1/2 is inhibited [9]: low nanomolar concentrations

CS(=O)(=O)N1CCc2c(-c3cnc(N)nc3)nc(N3CCOCC3)nc21 [CH5132799, 5-(7-(methylsulfonyl)-2-morpholino-6,7-dihydro-5H-pyrrolo[2,3-d]pyrimidin-4-yl)pyrimidin-2-amine]
IC50 against class I PI3Ks (order of magnitude in words) [10]: nanomolar

O=C(Nc1ccncc1)Nc1ccc(-c2nc(N3CCOCC3)nc(N3C4CCC3COC4)n2)cc1 [PKI-179, 1-[4-[4-morpholin-4-yl-6-(3-oxa-8-azabicyclo[3.2.1]octan-8-yl)-1,3,5-triazin-2-yl]phenyl]-3-pyridin-4-ylurea]
IC50 against PI3Kα (order of magnitude in words) [2]: nanomolar | IC50 against PI3Kβ (order of magnitude in words) [8]: nanomolar | IC50 against PI3Kγ (order of magnitude in words) [3]: nanomolar | IC50 against PI3Kδ (order of magnitude in words) [4]: nanomolar | IC50 against mTOR (order of magnitude in words) [1]: nanomolar

CCOc1c([C@H](C)n2nc(C)c3c(N)ncnc32)cc(Cl)c(F)c1[C@@H]1CNC(=O)C1 [Parsaclisib, (4R)-4-[3-[(1S)-1-(4-amino-3-methylpyrazolo[3,4-d]pyrimidin-1-yl)ethyl]-5-chloro-2-ethoxy-6-fluorophenyl]pyrrolidin-2-one]
IC50 against PI3Kδ (order of magnitude in words) [4]: nanomolar

C[C@H](Nc1ncnc2nc[nH]c12)c1nc2ccc(F)cc2c(=O)n1-c1ccccc1 [Acalisib, 6-fluoro-3-phenyl-2-[(1S)-1-(7H-purin-6-ylamino)ethyl]quinazolin-4-one]
IC50 against PI3Kδ (order of magnitude in words) [4]: nanomolar
